System: male ICR Swiss mice
Test: Example VI: subcutaneous PO4-ASARM-peptide or etidronate, calcein fluorescence and Sanderson osteoid staining
Format: in vivo
Conditions: four layers visible in vehicle group
Method: Subcutaneous administration of PO4-ASARM-peptide, etidronate (EHDP), and calcein. Three separate groups of male ICR Swiss mice (4-5 weeks) were subcutaneously injected once a day (9:00AM), for 12 days except for days 6 and 7 with 50 μL solutions of either (1) Eitidronate (EHDP) (10 mg/kg/day); (2) PO4-ASARM-peptide (2 mg/kg/day); or (3) vehicle consisting of 5 mM HEPES pH 7.4/150 mM NaCL/0.1% BSA. The synthetic PO4-ASARM-peptide was dissolved in vehicle (1.0 mg/mL). Etidronate was first dissolved in 150 mM NaCl and then buffered to pH 7.5 with 1M NaOH to give a 5 mg/mL solution. The 10 mg/kg/day doses of etidronate have previously been reported to inhibit mineralization in rats and were used as positive controls (Trechsel, et al., Am J Physiol 232(3):E298-305, 1977; Bonjour, et al., Am J Physiol 229(2):402-8, 1975). All three groups were subcutaneously injected with calcein (20 mg/kg/day) on days 3, 5, […]. The degree of calcein fluorescence and/or fluorescence-quenching is an indicator of mineralization status (see next section). The calcein injections when given were administered 1 h after the daily injections of PO4-ASARM-peptide, EHDP or vehicle. Animals were then terminated humanely and calvariae plus femurs/tibia were fixed in 70% ethanol (non-decalcified). After fluorescence imaging (see FIG. 35) calvariae were processed in plastic and stained with Sanderson's stain (see below). Five animals per group were used for statistical analysis of fluorescence quenching and histological Sanderson staining.
Calcein fluorescence in mice calvariae, hind-limbs & fluor-imager analysis of mineralization. A Bio-Rad (Hercules, Calif.) FluorImager^max fluorescent imager was used to simultaneously image all the samples from each of the 3 groups (15 animals; five animals per group). This consisted of 10 tibia/femurs and 5 calvariae per group. Samples were placed on top of the FluorImager plate contained within a light-tight box. Ultra-violet light was used to generate calcein-mediated epi-fluorescence and the fluorescent-image was captured on a −40° C., peltier-cooled, 1,340×1040 pixel CCD resolution, CCD digital-camera. Quantitation of fluorescence was carried out using Quantity-1 (Bio-Rad, Hercules, Calif.) fluorescence-software. Pixel saturation was prevented by internal software calibration and exposure adjustment. All fluorescence readings were thus accurately quantitative and non-saturating. Photo-micrographic UV fluorescent analysis of calvarial cross sections embedded in plastic and mounted as slides (<100 micrometer sections) was also undertaken and a description of the fixation and processing is given in the next section.
Sanderson-staining and fluorescence detection of calvarial osteoid & mineralized bone. Staining of non-decalcified calvarial sections was performed using the method described by Sanderson and Bachus (Staining technique to differentiate mineralized and demineralized bone in ground sections, J Histotechnol 20(2): 119-122, 1997). This technique provides differential staining between unmineralized osteoid and mineralized bone. Prior to staining, calvariae were dissected and attached tissue removed. Calvariae were then placed in 70% ethanol for further fixation as described by Sanderson and Bachus (supra). After fixing and processing undecalcified calvariae were embedded in plastic (LR-white acrylic resin (London Resin Co., Reading, England)) as previously described (Garrett, et al., Selective inhibitors of the osteoblast proteasome stimulate bone formation in vivo and in vitro, J Clin Invest 111(11):1771-1782, 2003). Plastic embedded sections were ground to <100 micrometers using a specialized grinding-pestle as described by Donath and Breuner (A method for the study of undecalcified bones and teeth with attached soft tissues. The Sage-Schliff (sawing and grinding) technique, J Oral Pathol 11(4):318-26, 1982). […]

Substance: H-CFSSRRRDDSSESSDSGSSSESDGD-OH [ASARM-peptide]
- lamellar calcein fluorescent layers in calvarial cross-sections: complete absence
